Reference: patent US10507211B2, “Treatment for hereditary neuropathy with liability to pressure palsies (HNPP)” (Vanderbilt University, priority 2016, dated 2019)
Marks after values point to notes of the source that are not given here.

Assays:
PAK1 [1] = molecular target: T1, PAK1 (Mus musculus, UniProt O88643); experiment: Western blot of phosphorylated PAK1 (T212) in sciatic nerves of treated Pmp22+/− mice; conditions: 0.25 mg/kg/day I.P., n = 8
Target sequence in this assay (O88643 whole entry): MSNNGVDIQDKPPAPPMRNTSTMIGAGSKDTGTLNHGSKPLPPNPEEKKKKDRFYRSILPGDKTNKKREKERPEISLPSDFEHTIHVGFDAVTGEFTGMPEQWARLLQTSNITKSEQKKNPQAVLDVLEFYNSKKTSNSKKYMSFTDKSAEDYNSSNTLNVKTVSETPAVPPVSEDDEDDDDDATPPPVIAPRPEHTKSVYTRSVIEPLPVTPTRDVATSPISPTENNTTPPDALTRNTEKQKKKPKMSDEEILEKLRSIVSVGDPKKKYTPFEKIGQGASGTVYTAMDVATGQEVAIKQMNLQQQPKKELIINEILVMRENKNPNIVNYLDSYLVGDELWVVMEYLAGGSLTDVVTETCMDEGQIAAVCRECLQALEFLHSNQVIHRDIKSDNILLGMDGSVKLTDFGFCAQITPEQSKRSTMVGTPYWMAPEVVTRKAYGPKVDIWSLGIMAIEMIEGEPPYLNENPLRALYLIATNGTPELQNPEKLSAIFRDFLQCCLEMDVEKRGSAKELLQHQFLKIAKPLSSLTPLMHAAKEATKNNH
Description: The specificity of total PAK1, S144, and T212 antibodies was verified using Pak1+/+ and Pak1−/− nerves.
(§2) Injection started at age of postnatal day 7. […] Using teased nerve fibers, the percentages of nerve fibers with tomacula, a key pathology of HNPP, was quantified, as described [8].
Samples were homogenized for protein isolation. […] Samples were loaded into SDS-PAGE gels and transferred to a PVDF membrane. The membranes were blotted with 5% non-fat milk and incubated overnight at 4° C. with primary antibodies, and followed by secondary antibodies. The immune complexes were detected by the enhanced chemoilluminescence (Cat# NEL103001, Perkin Elmer). In some cases, the blots were stripped and re-probed with additional antibodies. Quantification of band intensity was performed by the ImageJ software (rsbweb.nih.gov/ij/).

MEK1 = experiment: Western blot of phosphorylated MEK1 (S298) in sciatic nerves of treated Pmp22+/− mice; format: in vivo, mouse; conditions: 1 week old at start of injection; 0.25 mg/kg/day I.P.; 11 weeks; n = 8
Description: Residues in other PAKs could be phosphorylated but cannot be substantiated due to the lack of specific antibodies.
Samples were homogenized for protein isolation.

Pmp22+/− mice [2] = experiment: Percentage of teased nerve fibers with tomacula in treated Pmp22+/− mice; conditions: 0.25 mg/kg/day I.P.
Description: as §2
Another 14 Pmp22+/− mice (un-injected) were counted.

claudin-19 = experiment: Abnormal claudin-19 staining of paranodes and incisures (tight junctions) in treated Pmp22+/− mice; conditions: 0.25 mg/kg/day I.P., n = 8
Description: Paraffin sections of mouse sciatic nerves were stained with antibodies. Percentages of abnormal paranodes or incisures were manually counted [3]. An abnormal paranode or incisurae was defined as the staining was absent in more than a half of normally stained paranodal or incisure territory. […] White dots outline the margin of the nerve fiber, based on its phase-contrast image. […] As shown in Panel E of FIG. 2, teased sciatic nerve fibers of Pmp22+/+ mice at the 3 months of age were stained with antibodies against claudin-19 to show paranodes (quadrant E1) and incisures (arrowhead in quadrant E3).
(§3) Thus, Pmp22+/− mice were treated with 0.25, 0.5, 1.0 mg/kg PF3758309 or vehicle—saline (FIG. 7 and Table 1). […] Injection started at age of postnatal day 7.
In brief, sciatic nerves were fixed, embedded in paraffin, and cut into 5 μm-thick slices. Sections were incubated overnight with primary antibodies at 4° C. After washing, sections were stained for 1 hour with secondary antibodies. The stained slides were examined under a Leica fluorescent microscope (Leica DM6000B). For teased nerve stains, sciatic nerves were fixed in 4% paraformaldehyde (PFA) overnight and teased into individual fibers on glass slides. The slides were dried overnight, reacted with primary antibodies, and followed by secondary antibodies.

F-actin = F-actin staining of teased nerve fibers with fluorescent phalloidin in treated Pmp22+/− mice; format: in vivo, mouse; conditions: versus vehicle
Description: This method was modified from the published study. In brief, sciatic nerves were fixed, embedded in paraffin, and cut into 5 μm-thick slices. Sections were incubated overnight with primary antibodies at 4° C. After washing, sections were stained for 1 hour with secondary antibodies. The stained slides were examined under a Leica fluorescent microscope (Leica DM6000B). For teased nerve stains, sciatic nerves were fixed in 4% paraformaldehyde (PFA) overnight and teased into individual fibers on glass slides. […] For newly formed F-actin staining, as described, the existing F-actin in sciatic nerve explants was saturated with a cell-permeable actin-binding compound, jasplakinolide (Cat#420127, Millipore), at 1 μM in culture media. After washing with PBS, the explants were incubated in a drug-free media for 6 hours at 37° C. The explants were fixed in 4% PFA and teased for F-actin staining using fluorescent phalloidin (1:400, Cat# R415, Life Technologies).

PAK2 = molecular target: T2, PAK2 (Mus musculus, UniProt Q8CIN4); experiment: Phosphorylated PAK2 (S20) in primary Schwann cell culture; format: cell-based; conditions: Schwann cells; 9 μM for 12 hour
T2 construct: Pak1+/+ and Pak1−/− primary Schwann cell culture; endogenous in cells; host or cells: primary Schwann cells, Pak1+/+ and Pak1-/-
T2 sequence (Q8CIN4 whole entry): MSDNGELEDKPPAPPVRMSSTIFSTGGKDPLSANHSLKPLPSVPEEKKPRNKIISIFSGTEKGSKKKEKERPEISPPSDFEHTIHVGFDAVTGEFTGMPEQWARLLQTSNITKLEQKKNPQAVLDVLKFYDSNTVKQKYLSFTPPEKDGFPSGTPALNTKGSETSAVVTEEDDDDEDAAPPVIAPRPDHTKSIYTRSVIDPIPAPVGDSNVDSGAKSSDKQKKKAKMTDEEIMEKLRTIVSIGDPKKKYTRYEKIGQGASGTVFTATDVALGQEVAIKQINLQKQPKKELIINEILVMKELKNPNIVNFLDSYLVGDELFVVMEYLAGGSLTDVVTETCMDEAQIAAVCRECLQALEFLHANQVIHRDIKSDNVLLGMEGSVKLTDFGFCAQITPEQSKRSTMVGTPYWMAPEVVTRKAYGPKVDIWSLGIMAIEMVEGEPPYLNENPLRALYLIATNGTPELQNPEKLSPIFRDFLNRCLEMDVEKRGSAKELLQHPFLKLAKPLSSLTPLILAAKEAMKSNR
Description: (§1) FIG. 8. […] The total actin and GAPDH were used as loading controls.

[3] = reference [23]; cited from earlier work
PAK1 [4] = molecular target: T1, PAK1; experiment: F-actin and phosphorylated PAK1 in Pak1+/+ and Pak1−/− primary Schwann cell culture; format: cell-based; design: Pak1+/+ and Pak1−/− primary Schwann cell culture; endogenous in cells; host or cells: primary Schwann cells, Pak1+/+ and Pak1-/-; conditions: Pak1+/+ Schwann cells; 9 μM for 12 hour
Description: as §1
Target sequence in this assay (O88643 2-545): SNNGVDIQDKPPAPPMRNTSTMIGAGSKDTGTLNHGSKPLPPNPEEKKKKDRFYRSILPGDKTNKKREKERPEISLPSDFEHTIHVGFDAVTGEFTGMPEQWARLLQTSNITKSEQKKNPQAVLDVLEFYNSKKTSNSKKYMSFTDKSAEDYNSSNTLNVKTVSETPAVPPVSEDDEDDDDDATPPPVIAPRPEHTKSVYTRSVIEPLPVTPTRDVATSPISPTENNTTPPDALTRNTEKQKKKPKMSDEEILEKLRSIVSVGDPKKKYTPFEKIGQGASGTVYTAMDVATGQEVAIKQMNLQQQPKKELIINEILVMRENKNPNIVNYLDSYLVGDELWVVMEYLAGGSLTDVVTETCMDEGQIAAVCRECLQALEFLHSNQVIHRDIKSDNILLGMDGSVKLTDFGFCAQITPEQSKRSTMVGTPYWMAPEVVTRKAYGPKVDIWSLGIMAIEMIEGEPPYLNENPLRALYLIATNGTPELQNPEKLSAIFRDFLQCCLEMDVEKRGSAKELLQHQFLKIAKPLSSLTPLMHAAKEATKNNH

PAK1 [5] = experiment: as above; format: cell-based; conditions: Pak1−/− Schwann cells; 9 μM for 12 hour
Description: as §1

Pmp22+/− mice [6] = experiment: Evaluation of myelin permeability with 3 kDa Dextran in sciatic nerve fascicles of treated Pmp22+/− mice; conditions: 3-month-old Pmp22+/− mice; 0.25 mg/kg; versus vehicle; P<0.001
Description: With reference to Panel E of FIG. 7, sciatic nerve fascicles from 3-month-old Pmp22+/− mice were incubated with 3 kDa Dextran, as described [3], to evaluate the myelin permeability. Individual teased nerve fibers were imaged. Arrowheads point to the node of Ranvier. […] With reference to Panel F of FIG. 7, fluorescence intensity was quantified by placing a 2.5 μm×2.5 μm interest box 10 μm away from the middle point of the node of Ranvier.
In brief, 1 cm sciatic nerve fascicles were submerged in artificial CSF after epineurium removal and sealed at both ends with Vaseline. A 3 kDa Dextran of fluorescence (2 mg/ml, Cat# D3329, Life technologies) was added for one hour incubation at room temperature without oxygenation. After washing, the nerve fascicles were fixed in 4% PFA for 10 minutes and teased into individual nerve fibers on glass slides for fluorescence microscopy. Fluorescence intensity was quantified by placing a 5 μm×5 μm interest box 10 μm away from the middle point of the node of Ranvier.

Pmp22+/− mice [7] = experiment: Mouse tolerance to PF3758309 (i.p. daily); format: in vivo
Description: Pmp22+/− mice were backcrossed with C57Bl6J mice (Jackson Lab) for more than 10 generations to reach congenic. Mice were genotyped as described. The congenic Pmp22+/− mice have been extensively characterized.
For PAK1 inhibitor (PF3758309) injections, Pmp22+/− mice were randomized into vehicle and treated groups. Based on the power calculation of variations derived from mouse compound nerve action potentials, 7 mice for each group would have a 92% chance to detect a significant difference. PF-3758309 (Cat# CT-PF0375, ChemieTek) was dissolved in normal saline for intraperitoneal injection (i.p.) daily.

Pmp22+/− mice [8] = experiment: Nerve conduction study (NCS) on sciatic nerves of treated Pmp22+/− mice; conditions: for CV(m/s): 0.25 mg/kg/day I.P., n = 8
Description: as §3
In FIG. 7, Panel B, CMAP amplitudes were measured prior to the treatment.
NCS was previously described [8]. […] A skilled technician gets NCS done in each mouse within 6 minutes. […] CMAP was recorded from the intrinsic foot muscle using needle electrodes. Stimulation electrodes were positioned percutaneously at the sciatic notch and adjacent to the tibial nerve at the ankle. CMAP amplitudes were measured from baseline to the peak of negative deflection.

[9] = 1 week old at start of injection, 11 weeks
[10] = 6-11 month age at start of injection, 4 weeks

Cc1nc(Nc2n[nH]c3c2CN(C(=O)N[C@H](CN(C)C)c2ccccc2)C3(C)C)c2sccc2n1 [PF-3758309]
Ratio (T212/PAK1) (PAK1 [1]; [9]): 0.61 ± 0.0
Ratio (T212/PAK1) (PAK1 [1]; [10]): 0.26 ± 0.1
Ratio (S298/MEK1) (MEK1): 0.39 ± 0.2
% Tomacula (Pmp22+/− mice [2]; 1 week old at start of injection, 11 weeks, n = 8): 27.3 ± 4.5%
% Tomacula +outlier (Pmp22+/− mice [2]; 6-11 month age at start of injection, 4 weeks, outlier included): 25.2 ± 7.5%
% Tomacula −outlier (Pmp22+/− mice [2]; 6-11 month age at start of injection, 4 weeks, outlier taken off): 22.8 ± 4.3 ^d %
% abnormal Claudin-19 (incisures) (claudin-19; incisures, 1 week old at start of injection, 11 weeks): 27.7 ± 4.6 ^b %
% abnormal Claudin-19 (paranodes) (claudin-19; [9]): 36.5 ± 18.4 ^a %
% abnormal Claudin-19 (paranodes) (claudin-19; [10]): 43.5 ± 13.3 ^a %
levels of F-actin (F-actin; 0.25 mg/kg i.p. daily for 11 weeks, 3-month-old Pmp22+/− mice): suppressed
F-actin levels (F-actin; mice enrolled at 6-11 months, 0.25 mg/kg): significantly lower
level of phosphorylated PAK2 (S20) (PAK2): inhibited
total PAK2 levels (PAK2): not altered
penetration into the nervous system [3]: penetrated into the nervous system
F-actin level (PAK1 [4]): hardly detectable
level of phosphorylated PAK1 (S144) (PAK1 [4]): suppressed
level of phosphorylated PAK1 (T212) (PAK1 [4]): suppressed
F-actin level (PAK1 [5]): failed to change
3 kDa Dextran fluorescence intensity (myelin permeability) (Pmp22+/− mice [6]): significantly decreased
mortality and side-effect (Pmp22+/− mice [7]; 0.25 mg/kg, treated for 11 weeks): no increase of mouse mortality and observable side-effect
mice killed (Pmp22+/− mice [7]; 2.5 mg/kg or 25 mg/kg i.p. daily, 20 Pmp22+/− mice, within 15 days): over 50%
body weight (Pmp22+/− mice [7]; 2.5 mg/kg or 25 mg/kg i.p. daily, within 15 days): drastic reduction of body weight
tolerance (body weight, death) (Pmp22+/− mice [7]; 0.25, 0.5, 1.0 mg/kg i.p. daily, 11 weeks): tolerated these doses well with no change of body weight or increase of death
CMAP amplitude (Pmp22+/− mice [8]; 1.00 mg/kg i.p. daily for 11 weeks from postnatal day 7, eight 3-month-old Pmp22+/− mice (Pmp22+/+ 3.2±0.6 mV)): 1.5±0.8 mV
decline of CMAP amplitudes (Pmp22+/− mice [8]; 0.25, 0.5, 1.0 mg/kg i.p. daily for 11 weeks from postnatal day 7, versus vehicle): prevented the decline of CMAP amplitudes with all three dosages
CV(m/s) (Pmp22+/− mice [8]; [9]): 17.8 ± 3.0 m/s
CV(m/s) (Pmp22+/− mice [8]; [10]): 19.7 ± 11.1 m/s
decrease of CMAP amplitudes over the course of treatment (Pmp22+/− mice [8]; mice enrolled at 6-11 months, 0.25 mg/kg, vehicle fell from 1.6±0.7 mV to 0.7±0.2 mV): completely prevented
